Measurements: patent publication US20050244829A1, “Method of screening insulin resistance inproving drug” (priority 2002, published 2005)

Assays:
[1] = system: promoter region of p68 RNA helicase gene; assay: Promoter activity of p68 RNA helicase gene, luciferase reporter assay in COS-1 cells; assay type: cell-based, monkey; details: COS-1 cells co-transfected with pGL3-p68-899 bp or pGL3-p68-1184 bp; pioglitazone final concentration 10 μM; 24 hours; corrected by β-galactosidase activity; FIG. 2
Description: The culture medium was discarded and the cell was washed with phosphate buffered saline(PBS). Per each well, 80 μl each of lysis solution (100 mM potassium phosphate, pH 7.8, 0.2% Triton X-100) was added, for cell lysis. To 20 μl of the cytolytic solution, 100 μl of a luciferase substrate solution (Wako Pure Chemical Co., Ltd.) was added to assay the luminescence with a chemiluminescence meter (Type ML3000; Dynatech Laboratories). Separately, the β-galactosidase activity of the cytolytic solution was assayed with a kit for detecting the β-galactosidase activity (Galacto-Light Plus™ system; TROPIX), and the resulting value was digitized. This was used as the transfection efficiency of introduced gene, to correct the said luciferase activity per each well. Using primers represented by SEQ ID NOS:14 and 15 designed on the basis of the nucleotide sequence of the promoter of p68 RNA helicase gene as previously reported (Rossler, et al., Nucleic Acids Res., Vol. 28, pp. 932-939, 2000) and the human genome DNA sequence (GenBank accession No. AC009994) and additionally using the human genome DNA (Clontech) as template for PCR [using DNA polymerase (LA Taq DNA polymerase; Takara Shuzo Co., Ltd.), and at 98° C. (5 minutes) and subsequently 35 times of a cycle of 96° C. […] After culturing for 48 hours, the luminescence of luciferase was assayed in the same manner as in Example 2. […]

p68 RNA helicase = assay: Expression level of mRNA of p68 RNA helicase during differentiation of 3T3L1 cell into fat cell (real-time PCR); assay type: cell-based; details: 3T3L1 cell in differentiation culture medium; pioglitazone final concentration 1 μM; 24 hours after addition; corrected on G3PDH expression
Description: To a culture plate (60-mm diameter; Asahi Technoglass), 2 ml of the minimum essential culture medium of DMEM (Gibco) supplemented with 10% fetal bovine serum (Sigma) was added and a culture cell 3T3L1 cell was cultured therein to become confluence. Subsequently, the culture medium was replaced with a differentiation culture medium [the minimum essential culture medium DMEM (Gibco) supplemented with insulin (at a final concentration of 10 μg/ml; Sigma), dexamethazone (at a final concentration of […]; Sigma) and 3-isobutyl-1-[…] (at a final concentration of […]; Sigma)], to which pioglitazone (at a final concentration of 1 μM) as an agent for improving insulin resistance was added or was not added. Then, it was examined as to whether or not the expression level of p68 RNA helicase changed between the culture medium with or without adding pioglitazone. 24 hours after pioglitazone addition, the cell was harvested, to extract RNA using an RNA extraction reagent (ISOGEN; Wako Pure Chemical Co., Ltd.) for reverse transcription with a reverse transcription reaction kit (Thermoscript RT-PCR System; Invitrogen). […]

## CCc1ccc(CCOc2ccc(CC3SC(=O)NC3=O)cc2)nc1 (single isomer, unassigned; (+)) [pioglitazone, (+)-5-[4-[2-(5-ethyl-2-pyridinyl)ethoxy]benzyl]-2,4-thiazolidinedione]
[1]
  promoter activity of p68 RNA helicase gene (luciferase activity): activated
p68 RNA helicase
  expression level of p68 RNA helicase compared with the culture medium without pioglitazone addition: about 1.7 fold
